# Data taken from patent publication US20180099961A1, “PROTEIN KINASE INHIBITORS” (Princeton Drug Discovery Inc, priority 2016, published 2018).
# Like-named read-outs stand apart in the source and are kept apart here.
# Tests used:
# ACK = biological target: T1, ACK (Homo sapiens, UniProt Q07912); assay: Off-chip Mobility Shift Assay; type: biochemical; settings: read-out: IC50, recombinant ACK activity
# T1 construct: purchased Carna Biosciences
# BTK = biological target: T2, BTK (Homo sapiens, UniProt Q06187); assay: Off-chip Mobility Shift Assay; type: biochemical; settings: read-out: IC50, recombinant BTK activity
# T2 construct: purchased Carna Biosciences
# T2 sequence (Q06187 whole entry): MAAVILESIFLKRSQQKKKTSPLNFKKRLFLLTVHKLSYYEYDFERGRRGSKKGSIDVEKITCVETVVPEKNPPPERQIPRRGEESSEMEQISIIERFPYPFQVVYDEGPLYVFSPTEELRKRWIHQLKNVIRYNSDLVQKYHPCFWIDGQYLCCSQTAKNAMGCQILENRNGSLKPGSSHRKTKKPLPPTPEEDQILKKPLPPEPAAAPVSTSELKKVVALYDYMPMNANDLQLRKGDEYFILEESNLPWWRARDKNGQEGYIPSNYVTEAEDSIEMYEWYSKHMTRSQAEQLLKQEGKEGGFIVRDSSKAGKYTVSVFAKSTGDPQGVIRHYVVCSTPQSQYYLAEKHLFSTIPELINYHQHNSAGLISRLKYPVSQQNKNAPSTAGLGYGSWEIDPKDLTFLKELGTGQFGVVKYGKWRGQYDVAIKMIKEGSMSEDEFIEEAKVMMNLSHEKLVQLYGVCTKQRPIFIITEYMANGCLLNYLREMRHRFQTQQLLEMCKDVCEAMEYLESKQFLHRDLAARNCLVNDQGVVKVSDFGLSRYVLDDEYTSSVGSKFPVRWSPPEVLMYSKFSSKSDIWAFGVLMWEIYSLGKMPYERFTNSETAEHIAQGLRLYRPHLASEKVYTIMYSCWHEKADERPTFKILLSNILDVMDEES
# PDGFRα = biological target: T3, PDGFRα (Homo sapiens, UniProt P16234); assay: Off-chip Mobility Shift Assay; type: biochemical; settings: read-out: IC50, recombinant PDGFRα activity
# T3 construct: purchased Carna Biosciences
# T3 sequence (P16234 24-1089): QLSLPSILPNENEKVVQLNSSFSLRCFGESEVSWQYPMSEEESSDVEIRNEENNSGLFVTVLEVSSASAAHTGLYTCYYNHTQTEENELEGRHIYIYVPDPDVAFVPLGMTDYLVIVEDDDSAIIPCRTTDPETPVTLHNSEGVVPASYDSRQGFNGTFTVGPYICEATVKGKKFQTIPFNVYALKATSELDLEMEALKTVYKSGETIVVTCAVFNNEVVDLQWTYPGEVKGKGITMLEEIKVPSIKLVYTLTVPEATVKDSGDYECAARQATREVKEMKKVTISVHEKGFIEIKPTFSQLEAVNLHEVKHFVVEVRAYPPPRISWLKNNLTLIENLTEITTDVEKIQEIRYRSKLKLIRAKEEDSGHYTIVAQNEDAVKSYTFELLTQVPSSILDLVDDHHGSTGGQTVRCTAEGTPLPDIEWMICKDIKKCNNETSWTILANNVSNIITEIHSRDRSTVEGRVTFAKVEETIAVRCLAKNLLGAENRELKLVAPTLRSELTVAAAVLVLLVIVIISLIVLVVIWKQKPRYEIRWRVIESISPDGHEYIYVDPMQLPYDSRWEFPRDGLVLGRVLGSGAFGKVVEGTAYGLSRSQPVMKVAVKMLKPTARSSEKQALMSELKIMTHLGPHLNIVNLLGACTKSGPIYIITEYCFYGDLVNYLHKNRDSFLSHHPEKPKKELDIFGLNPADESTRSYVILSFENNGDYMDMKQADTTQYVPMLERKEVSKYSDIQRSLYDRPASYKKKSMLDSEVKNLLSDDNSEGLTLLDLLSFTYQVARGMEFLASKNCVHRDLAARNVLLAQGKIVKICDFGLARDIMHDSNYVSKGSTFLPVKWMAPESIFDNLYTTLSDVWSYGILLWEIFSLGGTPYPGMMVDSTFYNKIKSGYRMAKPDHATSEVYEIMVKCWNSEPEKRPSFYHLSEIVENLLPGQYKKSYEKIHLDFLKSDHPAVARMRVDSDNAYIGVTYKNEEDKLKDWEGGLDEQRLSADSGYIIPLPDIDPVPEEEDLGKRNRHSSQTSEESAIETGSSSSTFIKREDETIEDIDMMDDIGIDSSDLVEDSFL
# PIK3CA/PIK3R1 = biological target: T4, PIK3CA/PIK3R1 (Homo sapiens, UniProt P42336); assay: Off-chip Mobility Shift Assay; type: biochemical; settings: read-out: IC50, recombinant PIK3CA/PIK3R1 activity
# T4 construct: purchased Carna Biosciences
# RAF1 = assay: Off-chip Mobility Shift Assay; type: biochemical; settings: 10 nM
# [1] = Metabolic stability in human liver microsomes; type: in vitro ADME; settings: for metabolic stability as compared to dasatinib: human liver microsomes; for microsomal CLint at 1 μM / half-life at 1 μM: human, liver microsomes, human liver microsomes 0.5 mg/mL, NADPH and UDPGA, 37° C.; for microsomal CLint at 1 μM: read-out: CLint (intrinsic clearance); for half-life at 1 μM: read-out: In vitro t1/2
# Method: FIG. 1. Metabolic stability of compounds in human liver microsomal incubations. […] Concentrations at specified times were determined by LC-MS/MS.
# The incubation reactions at various time points were quenched by adding 2× volumes of acetonitrile containing 100 nM reserpine. The quenched incubation samples were centrifuged at 4000 RPM for 10 min, and the supernatants injected for LC/MS/MS analysis. LC/MS/MS analysis was carried out on a AB Sciex 4000 Q Trap LC/MS/MS system coupled with Shimadzu Prominence UFLCXR 20 series (including a CBM-20A controller, two LC-20ADXR solvent delivery units, SIL-20AC HT autosampler, CTO-20A column oven, and a SPD-20A UV detector).
# ABL = biological target: T5, ABL (Homo sapiens, UniProt P00519); assay: Off-chip Mobility Shift Assay; type: biochemical; settings: read-out: IC50, recombinant ABL activity
# T5 construct: purchased Carna Biosciences
# T5 sequence (P00519 whole entry): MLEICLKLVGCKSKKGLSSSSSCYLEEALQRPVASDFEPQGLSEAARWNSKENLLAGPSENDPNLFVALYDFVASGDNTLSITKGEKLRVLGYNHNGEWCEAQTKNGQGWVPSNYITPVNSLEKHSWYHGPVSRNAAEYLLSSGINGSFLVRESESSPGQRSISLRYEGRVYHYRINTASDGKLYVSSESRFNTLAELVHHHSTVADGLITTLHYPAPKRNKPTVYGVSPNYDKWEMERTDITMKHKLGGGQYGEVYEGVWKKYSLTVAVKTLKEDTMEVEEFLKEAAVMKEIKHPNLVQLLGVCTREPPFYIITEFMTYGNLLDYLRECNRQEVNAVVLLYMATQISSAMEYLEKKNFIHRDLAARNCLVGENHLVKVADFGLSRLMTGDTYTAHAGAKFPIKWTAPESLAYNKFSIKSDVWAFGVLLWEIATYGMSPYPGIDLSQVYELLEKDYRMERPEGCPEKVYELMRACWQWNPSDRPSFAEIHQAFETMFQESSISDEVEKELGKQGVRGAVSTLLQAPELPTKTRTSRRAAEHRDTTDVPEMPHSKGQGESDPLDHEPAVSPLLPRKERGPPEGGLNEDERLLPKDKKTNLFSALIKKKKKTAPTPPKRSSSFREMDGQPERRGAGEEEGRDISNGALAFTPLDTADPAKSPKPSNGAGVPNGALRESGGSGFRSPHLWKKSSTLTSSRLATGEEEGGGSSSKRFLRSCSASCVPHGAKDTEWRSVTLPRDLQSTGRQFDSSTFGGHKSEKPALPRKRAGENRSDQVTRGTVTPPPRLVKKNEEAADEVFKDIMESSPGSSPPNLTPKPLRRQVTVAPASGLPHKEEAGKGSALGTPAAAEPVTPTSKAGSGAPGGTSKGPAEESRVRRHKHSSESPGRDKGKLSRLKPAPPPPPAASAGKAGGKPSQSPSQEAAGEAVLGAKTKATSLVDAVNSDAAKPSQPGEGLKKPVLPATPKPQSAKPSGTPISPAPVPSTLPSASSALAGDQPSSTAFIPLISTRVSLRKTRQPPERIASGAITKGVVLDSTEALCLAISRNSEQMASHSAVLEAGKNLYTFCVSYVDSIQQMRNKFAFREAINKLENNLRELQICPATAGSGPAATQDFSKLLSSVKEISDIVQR
# ABL(E255K) = biological target: T6, ABL(E255K) (Homo sapiens, UniProt P00519, E255K); assay: Off-chip Mobility Shift Assay; type: biochemical; settings: read-out: IC50, recombinant ABL (E255K) activity
# T6 construct: purchased Carna Biosciences
# T6 sequence (P00519 whole entry E255K): as the sequence (P00519 whole entry) above, with E255K counted along it
# BTK (C481S) = biological target: T7, BTK (C481S) (Homo sapiens, UniProt Q06187, C481S); assay: Off-chip Mobility Shift Assay; type: biochemical; settings: read-out: IC50, recombinant BTK (C481S) activity
# T7 construct: purchased Carna Biosciences
# T7 sequence (Q06187 whole entry C481S): as the sequence (Q06187 whole entry) above, with C481S counted along it
# [2] = Pharmacokinetics in Sprague-Dawley rats, 2-in-1 dosing; type: in vivo; settings: for intravenous plasma clearance compared to dasatinib and compound III / intravenous volume of distribution compared to dasatinib and compound III: Sprague-Dawley rats; for clearance / Vd: single dose (Table 3); for clearance: read-out: CL (plasma clearance) (converted); for Vd: read-out: V (volume of distribution); for AUC(0-inf) / AUC(0-t) / half-life / Cmax / Tmax: single dose, plasma (Table 3); for half-life: read-out: t½ (converted)
# Method: Sprague-Dawley rats (approximate weight 275-300 g, N=3) were dosed intravenously at 5 mL/kg and orally at 10 mL/kg with the above dosing solutions. Blood samples were collected into tubes containing EDTA as the anticoagulant at 0, 0.25 (intravenous only), 0.5, 1, 2, 4, 8, 10, and 24 h post-dosing, and plasma samples were prepared by centrifugation. The plasma samples were mixed with 3× volumes of acetonitrile containing 100 nM reserpine as the internal standard, and centrifuged at 4000 RPM for 15 min. The supernatants were injected for LC/MS analysis which were carried out on a AB Sciex 4000 Q Trap LC/MS/MS system coupled with Shimadzu Prominence UFLCXR 20 series (including a CBM-20A controller, two LC-20ADXR solvent delivery units, SIL-20AC HT autosampler, CTO-20A column oven, and a SPD-20A UV detector). The samples were separated on a Phenomenex Columbus column (C18, 4 μm, 50×2 mm) eluted with two solvent systems: 2 mM ammonium acetate in water containing 0.1% formic acid (A) and methanol (B) at a linear gradient starting with 25% B. Electrospray ionization in positive mode was used to acquire LC/MS/MS data.
# [3] = Lung tissue and plasma concentration ratios in mice; type: in vivo, CD-1 mouse; settings: single oral dose 5 mg/kg, 2-in-1 with dasatinib, all time points tested
# Method: CD-1 mouse (approximate weight 30 g, N=3) were dosed by oral gavage at 10 mL/kg. Blood samples were collected into tubes containing EDTA as the anticoagulant at 1, 2, 4, 10 h post-dosing for Compound X, and predose, 1, 2, 3, 8, 10 and 24 h post-dosing for Compound XI. The plasma samples were prepared by centrifugation. Lung samples were also collected at each of the above time points. The lung samples were homogenated in 4× distilled water (v/w). The plasma samples and the homogenated lung tissue samples were mixed with 3× volumes of acetonitrile containing 100 nM reserpine as the internal standard, and centrifuged at 4000 RPM for 15 min. The supernatants were injected for LC/MS analysis which were carried out on a AB Sciex 4000 Q Trap LC/MS/MS system coupled with Shimadzu Prominence UFLCXR 20 series (including a CBM-20A controller, two LC-20ADXR solvent delivery units, SIL-20AC HT autosampler, CTO-20A column oven, and a SPD-20A UV detector). The samples were separated on a Phenomenex Columbus column (C18, 4 μm, 50×2 mm) eluted with two solvent systems: 2 mM ammonium acetate in water containing 0.1% formic acid (A) and methanol (B) at a linear gradient starting at 25%. Electrospray ionization in positive mode was used to acquire LC/MS/MS data.
# [4] = Sprague-Dawley, rat, plasma, iv, 1 mg/kg, intravenous 1 mg/kg
# [5] = Sprague-Dawley, rat, plasma, po, 5 mg/kg, PO 5 mg/kg
# [6] = Sprague-Dawley, rat, PO 5 mg/kg
# T1 sequence (Q07912 whole entry): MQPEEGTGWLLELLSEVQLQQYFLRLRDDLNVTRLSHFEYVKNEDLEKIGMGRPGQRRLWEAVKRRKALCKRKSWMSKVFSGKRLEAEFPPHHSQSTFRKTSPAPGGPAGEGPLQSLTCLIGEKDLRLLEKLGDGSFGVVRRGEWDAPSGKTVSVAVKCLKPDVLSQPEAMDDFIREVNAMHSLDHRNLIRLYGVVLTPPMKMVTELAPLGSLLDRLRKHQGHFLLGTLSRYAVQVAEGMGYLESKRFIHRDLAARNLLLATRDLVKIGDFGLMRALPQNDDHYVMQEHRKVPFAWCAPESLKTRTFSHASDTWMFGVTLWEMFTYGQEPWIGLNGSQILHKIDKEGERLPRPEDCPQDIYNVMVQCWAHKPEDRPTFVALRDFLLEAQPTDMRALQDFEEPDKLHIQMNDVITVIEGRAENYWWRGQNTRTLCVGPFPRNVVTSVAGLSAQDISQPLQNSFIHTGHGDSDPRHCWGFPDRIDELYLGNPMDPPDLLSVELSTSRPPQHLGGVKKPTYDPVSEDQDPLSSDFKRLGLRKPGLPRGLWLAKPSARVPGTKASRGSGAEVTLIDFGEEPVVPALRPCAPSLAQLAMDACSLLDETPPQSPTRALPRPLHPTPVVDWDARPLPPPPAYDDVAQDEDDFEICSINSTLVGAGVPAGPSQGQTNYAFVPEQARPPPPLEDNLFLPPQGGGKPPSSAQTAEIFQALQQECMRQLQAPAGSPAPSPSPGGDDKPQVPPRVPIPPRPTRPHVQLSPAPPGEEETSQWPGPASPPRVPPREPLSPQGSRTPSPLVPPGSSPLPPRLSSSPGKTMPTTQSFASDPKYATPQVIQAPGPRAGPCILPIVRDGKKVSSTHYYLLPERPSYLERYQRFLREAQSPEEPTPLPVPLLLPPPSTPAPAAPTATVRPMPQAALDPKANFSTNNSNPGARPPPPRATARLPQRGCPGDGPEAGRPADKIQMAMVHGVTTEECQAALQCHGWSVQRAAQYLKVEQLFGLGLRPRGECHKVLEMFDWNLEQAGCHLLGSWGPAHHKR
IC50 (BTK),metabolic stability as compared to dasatinib [1],IC50 (ABL),IC50 (ABL(E255K)),IC50 (BTK (C481S)),microsomal CLint at 1 μM [1],half-life at 1 μM [1],intravenous plasma clearance compared to dasatinib and compound III [2],intravenous volume of distribution compared to dasatinib and compound III [2],"clearance [2, 4]","Vd [2, 4]","AUC(0-inf) [2, 4]","AUC(0-t) [2, 4]","half-life [2, 4]","AUC(0-inf) [2, 5]","AUC(0-t) [2, 5]","half-life [2, 5]","Cmax [2, 6]","Tmax [2, 6]",ratio of lung tissue concentration to plasma concentration as compared to dasatinib [3],SMILES,also measured
~0.2 nM,significantly greater stability,–,–,–,–,–,–,–,–,–,–,–,–,–,–,–,–,–,–,"[2H]c1cc(C)c(NC(=O)c2cnc(Nc3cc(N4CCCCC4)nc(C)n3)s2)c(Cl)c1 [Compound I, N-(2-chloro-4-deuterio-6-methyl-phenyl)-2-[[2-methyl-6-(1-piperidyl)pyrimidin-4-yl]amino]thiazole-5-carboxamide]",IC50 (ACK): ~0.5 nM; IC50 (PDGFRα): ~1.4 nM; IC50 (PIK3CA/PIK3R1): ~12 nM; inhibition of RAF1 (RAF1): < 50%
< 1 nM,significantly greater stability,< 1 nM,< 1 nM,< 1 nM,< 24 µL/min/mg,> 0.983 h,much lower,significantly lower,6.75 mL/min/kg,1 L/kg,2520 ± 446 ng·h/mL,2520 ± 446 ng·h/mL,1.6 ± 0.2 h,1200 ± 349 ng·h/mL,1120 ± 369 ng·h/mL,6.8 ± 4.1 h,93 ± 101 ng/mL,0.5 h,significantly lower,"Cc1nc(Nc2ncc(C(=O)Nc3c(C)cccc3Cl)s2)cc(N2CC[C@H](O)C2)n1 [Compound X, N-(2-chloro-6-methylphenyl)-2-[[2-methyl-6-((S)-3-hydroxypyrrolidin-1-yl)pyrimidin-4-yl]amino]thiazole-5-carboxamide]",–
< 1 nM,significantly greater stability,< 1 nM,< 1 nM,< 1 nM,< 24 µL/min/mg,> 0.983 h,much lower,significantly lower,6.77 mL/min/kg,1 L/kg,2480 ± 243 ng·h/mL,2480 ± 243 ng·h/mL,1.6 ± 0.2 h,1500 ± 273 ng·h/mL,1420 ± 343 ng·h/mL,6 ± 3.6 h,102 ± 86 ng/mL,0.5 h,significantly lower,"Cc1nc(Nc2ncc(C(=O)Nc3c(C)cccc3Cl)s2)cc(N2CC[C@@H](O)C2)n1 [Compound XI, N-(2-chloro-6-methylphenyl)-2-[[2-methyl-6-((R)-3-hydroxypyrrolidin-1-yl)pyrimidin-4-yl]amino]thiazole-5-carboxamide]","bioavailability ([2]; Sprague-Dawley, rat, plasma, PO 5 mg/kg versus intravenous 1 mg/kg, AUCinf dose normalized (Table 3), read-out: F (percent oral bioavailability)): 24 ± 33.1%"
